Assay results published in patent publication US12325708B2, “Adenosine 2 receptor antagonists” (Nektar Therapeutics, priority 2019, dated 2025).
In brackets after ≈: the same amount, converted by molar mass.

Assays:
[1] = Plasma protein binding (PPB), mouse; assay type: in vitro ADME; details: read-out: Plasma protein binding (PPB) (fu)
[2] = Brain-to-plasma ratio (B/P) after administration; assay type: in vivo, Sprague-Dawley rats; details: Table 2, brain-to-plasma ratio at 1 h
Outline: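 Plasma pharmacokinetic parameters determined after oral (PO) administration; brain-to-plasma concentration ratio (B/P) used as the brain penetration measure.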

[3] = Hepatic clearance in vitro CLint, dog liver microsomes; assay type: in vitro ADME
mouse CT-26 cells = test: Antitumor activity in CT26 subcutaneous tumor model in Balb/c mice; assay type: in vivo; details: day 13 vs vehicle
Procedure: Mice used were ˜ 6-8 week-old female Balb/c mice subcutaneously inoculated with 2×10^6 mouse CT-26 cells. […] The mice were divided into six treatment groups as follows: vehicle (qdx9) PO+IP, Compound 1 (10 mg/kg, qdx9)+an exemplary anti-mouse PD1 (CD279) antibody (BioXCell) (200 μg/mouse, q2dx4); Compound 1 (30 mg/kg, qdx9)+anti-PD1 antibody (200 μg/mouse, q2dx4), Compound 1 (100 mg/kg)+anti-PD1 antibody (200 μg/mouse, q2dx4), anti-PD1 antibody (200 μg/mouse, q2dx4), or preladenant (30 mg/kg, qdx9)+anti-PD1 antibody (200 μg/mouse, q2dx4). Compound 1 and preladenant were administered orally. The anti-PD1 antibody was administered IP. Body weight was measured daily. Tumor growth of the CT26 cells was monitored three times per week by measuring the tumor volume size using a caliper with the results shown in FIG. 5.

[4] = Hepatic clearance in vitro CLint, human liver microsomes; assay type: in vitro ADME
[5] = Plasma pharmacokinetic parameters of Compound 1 in dogs; assay type: in vivo; details: dog
Source text: (§1) Pharmacokinetic parameters were further estimated in vivo after IV or PO administration of Compound 1 in mice and dogs with the results provided in Table 4 below.

A3 receptor = target: T1, A3 receptor (Homo sapiens, UniProt P0DMS8); test: Radioligand receptor binding assay, A3 receptor; details: cell membranes overexpressing A3 receptor, read-out: Potency Ki A3
T1 construct: purchased
T1 sequence (P0DMS8 1-318): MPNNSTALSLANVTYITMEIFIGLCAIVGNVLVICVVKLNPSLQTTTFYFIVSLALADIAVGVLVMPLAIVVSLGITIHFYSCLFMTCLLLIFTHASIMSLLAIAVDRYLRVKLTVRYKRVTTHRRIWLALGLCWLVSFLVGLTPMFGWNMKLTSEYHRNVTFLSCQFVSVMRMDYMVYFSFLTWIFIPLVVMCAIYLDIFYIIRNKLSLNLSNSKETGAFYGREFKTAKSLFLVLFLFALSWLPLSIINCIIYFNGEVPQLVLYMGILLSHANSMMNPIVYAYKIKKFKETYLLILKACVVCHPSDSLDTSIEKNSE
Procedure: Using conventional receptor binding assay techniques, Compounds 1-24 were assayed to determine binding activity at the A2A, A1, and A3 receptors with the results shown in Table 7.
Receptor binding affinity of Compounds 1-24 was measured using radioligand binding assays using commercially obtained cell membranes prepared from cell lines overexpressing the A2A, A1, or A3 receptors. Briefly, cell membrane preparations from cells expressing the specific receptor were mixed with the appropriate [^3H]-labeled tracer for the specific receptor and the test compound or a known inhibitor of receptor-ligand binding. Following 60 min incubation at room temperature to allow receptor-ligand complex formation, the complexes were collected by filtration, washed with 50 mM Tris HCl (pH 7.5) to remove radioligand that was not receptor-bound, and the remaining radioactivity determined by liquid scintillation counting. Specific radioligand binding was calculated for each test compound concentration and IC50 values were determined by non-linear, regression analysis. Inhibition constants (Ki) were calculated using the equation of Cheng and Prusoff using the observed IC50 of the tested compound, the concentration of radioligand employed in the assay and the experimentally determined values for the Kd of the ligand.

[6] = Plasma protein binding (PPB), human; assay type: in vitro ADME; details: read-out: Plasma protein binding (PPB) (fu)
[7] = Plasma protein binding (PPB), dog; assay type: in vitro ADME; details: read-out: Plasma protein binding (PPB) (fu)
[8] = Hepatic clearance in vitro CLint, rat liver microsomes; assay type: in vitro ADME
[9] = Hepatic clearance in vitro CLint, mouse liver microsomes; assay type: in vitro ADME
[10] = Permeability Caco-2 Papp and efflux ratio; assay type: in vitro ADME; details: human
[11] = Plasma pharmacokinetic parameters of Compound 1 in mice; assay type: in vivo; details: mouse, PO 30 mg/kg
Source text: as §1

[12] = Plasma protein binding (PPB), rat; assay type: in vitro ADME; details: read-out: Plasma protein binding (PPB) (fu)
Solubility = assay type: physicochemical

SMILES: COCCOc1ccc(N2CCN(CCN(C)c3cc4nc(-c5ncco5)nn4c(N)n3)CC2)cc1 [Compound 1, N^7-(2-{4-[4-(2-methoxyethoxy)phenyl]piperazin-1-yl}ethyl)-N^7-methyl-2-(1,3-oxazol-2-yl)[1,2,4]triazolo[1,5-c]pyrimidine-5,7-diamine]
- fraction unbound [1]: 0.19
- B/P (1 h) [2]: 0.06^1
- microsomal CLint [3]: < 1 µL/min/mg
- % TGI (mouse CT-26 cells; 10 mg/kg qdx9 PO + anti-PD1 antibody 200 μg/mouse q2dx4 IP): 34%
- % TGI (mouse CT-26 cells; 30 mg/kg qdx9 PO + anti-PD1 antibody 200 μg/mouse q2dx4 IP): 41^1%
- % TGI (mouse CT-26 cells; 100 mg/kg PO + anti-PD1 antibody 200 μg/mouse q2dx4 IP): 47^2%
- microsomal CLint [4]: 43 µL/min/mg
- F ([5]; PO 1&10 mg/kg vs IV 0.2 mg/kg): >100%
- clearance ([5]; plasma, IV 0.2 mg/kg): 12 mL/min/kg
- half-life ([5]; plasma, IV 0.2 mg/kg): 6 h
- Vd ([5]; plasma, IV 0.2 mg/kg, read-out: Vss): 5.2 L/kg
- AUC(0-inf) ([5]; plasma, PO 1 mg/kg): 2020 ng·h/mL
- AUC(0-inf) ([5]; plasma, PO 10 mg/kg): 17900 ng·h/mL
- Ki (A3 receptor): > 10 µM
- fraction unbound [6]: 0.39
- fraction unbound [7]: 0.43
- microsomal CLint [8]: 17 µL/min/mg
- microsomal CLint [9]: 29 µL/min/mg
- Papp [10]: 14.5 ×10⁻⁶ cm/s
- efflux ratio ([10]; read-out: Efflux Ratio (ER)): 1.6
- AUC(0-inf) [11]: 5760 ng·h/mL
- fraction unbound [12]: 0.15
- solubility (Solubility; pH ~3): ~5000 µM (≈ 2470 µg/mL)
- solubility (Solubility; pH ~7): 20 to 40 µM (≈ 9.87 to 19.7 µg/mL)

SMILES: COCCOc1cnc(N2CCN(CCN(C)c3cc4nc(-c5ncco5)nn4c(N)n3)CC2)c(F)c1 [Compound 4, N^7-(2-{4-[3-fluoro-5-(2-methoxyethoxy)pyridin-2-yl]piperazin-1-yl}ethyl)-N^7-methyl-2-(1,3-oxazol-2-yl)[1,2,4]triazolo[1,5-c]pyrimidine-5,7-diamine]
- Kp at 1 h ([2]; Sprague-Dawley, rat): 0.04
